The term Ki denotes a dissociation constant, usually derived from enzyme kinetics or from competition with a known ligand.

Test [1] has as its target T1, human adenosine A2A receptor (Homo sapiens, UniProt P29274).
T1 construct: expressed in transfected cells; host or cells: CHO cells, Semliki Forest virus expression system; membrane preparation
Description: Human adenosine A2A receptor [3H]-SCH-58261 binding assay. Particulars: for Ki: affinity to human adenosine A2A receptor, read-out: Ki HA2A; for selectivity (A1/A2a): calculated ratio of the affinity to the HA1 receptor to the HA2a receptor.

The next test addresses T2, HA1 adenosine receptor (Homo sapiens, UniProt P30542).
T2 sequence (P30542 1-326): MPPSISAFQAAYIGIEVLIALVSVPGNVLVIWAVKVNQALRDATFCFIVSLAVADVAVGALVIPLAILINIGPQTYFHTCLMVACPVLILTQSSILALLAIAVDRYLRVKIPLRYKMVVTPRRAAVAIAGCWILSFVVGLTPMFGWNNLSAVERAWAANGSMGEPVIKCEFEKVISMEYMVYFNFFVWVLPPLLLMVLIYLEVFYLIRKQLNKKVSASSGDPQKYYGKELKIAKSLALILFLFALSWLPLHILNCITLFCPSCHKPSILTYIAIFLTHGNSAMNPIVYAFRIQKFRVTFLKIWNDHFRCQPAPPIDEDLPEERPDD
Kind of test: Human adenosine A1 receptor affinity (Ki hA1). The format is binding. Particulars: affinity to human adenosine A1 receptor.

T1 sequence (P29274 whole entry): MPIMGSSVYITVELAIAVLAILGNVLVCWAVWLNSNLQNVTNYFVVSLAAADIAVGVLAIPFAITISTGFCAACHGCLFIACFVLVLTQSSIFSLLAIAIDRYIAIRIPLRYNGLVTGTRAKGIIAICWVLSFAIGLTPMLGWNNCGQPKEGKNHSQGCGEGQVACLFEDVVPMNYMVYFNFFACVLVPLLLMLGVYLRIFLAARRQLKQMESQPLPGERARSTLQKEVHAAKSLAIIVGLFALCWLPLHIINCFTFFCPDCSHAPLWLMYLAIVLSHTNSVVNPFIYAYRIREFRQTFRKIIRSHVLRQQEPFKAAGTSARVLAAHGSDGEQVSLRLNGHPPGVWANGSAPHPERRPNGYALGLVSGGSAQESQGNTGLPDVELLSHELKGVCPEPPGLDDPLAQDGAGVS

Take `C=CCN(C)C(=O)c1cc(N)n2nc(-c3ccc(Br)o3)nc2c1` [Example 267, 5-Amino-2-(5-bromo-furan-2-yl)-[1,2,4]triazolo[1,5-a]pyridine-7-carboxylic acid allyl-methyl-amide]: the results for the inhibitory constant (Ki) (in test [1]; at HA1 adenosine receptor) were 0.0043 µM and 0.181 µM, respectively. Further, in test [1], the “selectivity (A1/A2a)” value is reported as 42.0.

Regarding `CC(C)N(C)C(=O)c1cc(N)n2nc(-c3ccc(Br)o3)nc2c1` [Example 269, 5-Amino-2-(5-bromo-furan-2-yl)-[1,2,4]triazolo[1,5-a]pyridine-7-carboxylic acid isopropyl-methyl-amide], in test [1], the Ki amounted to 0.0027 µM and the “selectivity (A1/A2a)” value is reported as 40.9. Further, the affinity on HA1 adenosine receptor, expressed as Ki, was 0.11 µM.

`CCCCN(C)C(=O)c1cc(N)n2nc(-c3ccc(Br)o3)nc2c1` [Example 271, 5-Amino-2-(5-bromo-furan-2-yl)-[1,2,4]triazolo[1,5-a]pyridine-7-carboxylic acid butyl-methyl-amide]: in test [1], the Ki came to 0.0065 µM and the “selectivity (A1/A2a)” value is given as 22.9. This compound also came in with a Ki on HA1 adenosine receptor of 0.149 µM.

With `CCN(C(=O)c1cc(N)n2nc(-c3ccc(Br)o3)nc2c1)C(C)C` [Example 272, 5-Amino-2-(5-bromo-furan-2-yl)-[1,2,4]triazolo[1,5-a]pyridine-7-carboxylic acid ethyl-isopropyl-amide], in test [1], the Ki was determined as 0.0022 µM and the “selectivity (A1/A2a)” value was 36.8. On HA1 adenosine receptor, this compound yielded an inhibitory constant (Ki) of 0.081 µM.

Take `CC1C=CC(C)N1C(=O)c1cc(N)n2nc(-c3ccc(Br)o3)nc2c1` (stereo not drawn) [Example 273, [5-Amino-2-(5-bromo-furan-2-yl)-[1,2,4]triazolo[1,5-a]pyridin-7-yl]-(2,5-dimethyl-2,5-dihydro-pyrrol-1-yl)-methanone]: in test [1], the Ki came to 0.0039 µM and the “selectivity (A1/A2a)” value was 64.4. The compound also had an inhibition constant Ki on HA1 adenosine receptor of 0.251 µM.

For `C=CCN(CC=C)C(=O)c1cc(N)n2nc(-c3ccc(Br)o3)nc2c1` [Example 274, 5-Amino-2-(5-bromo-furan-2-yl)-[1,2,4]triazolo[1,5-a]pyridine-7-carboxylic acid diallylamide], the figures for the inhibitory constant (Ki) (in test [1]; on HA1 adenosine receptor) were 0.0028 µM and 0.116 µM, respectively. Besides, the “selectivity (A1/A2a)” value in test [1] was 41.6.

With `CC1CCC(C)N1C(=O)c1cc(N)n2nc(-c3ccc(Br)o3)nc2c1` (stereo not drawn) [Example 275, [5-Amino-2-(5-bromo-furan-2-yl)-[1,2,4]triazolo[1,5-a]pyridin-7-yl]-(2,5-dimethyl-pyrrolidin-1-yl)-methanone], in test [1], the inhibition constant Ki was 0.0054 µM and the “selectivity (A1/A2a)” value is on record as 38.7. Further, on HA1 adenosine receptor, the affinity, expressed as Ki, was 0.209 µM.

Regarding `CC(C)N(C(=O)c1cc(N)n2nc(-c3ccc(Br)o3)nc2c1)C(C)C` [Example 276, 5-Amino-2-(5-bromo-furan-2-yl)-[1,2,4]triazolo[1,5-a]pyridine-7-carboxylic acid diisopropylamide], the values for the inhibitory constant (Ki) (in test [1]; at HA1 adenosine receptor) were 0.0101 µM and 0.229 µM, respectively. For the same compound, the “selectivity (A1/A2a)” value in test [1] is on record as 22.6.

On to `CCCCN(CC)C(=O)c1cc(N)n2nc(-c3ccc(Br)o3)nc2c1` [Example 277, 5-Amino-2-(5-bromo-furan-2-yl)-[1,2,4]triazolo[1,5-a]pyridine-7-carboxylic acid butyl-ethyl-amide], for which, in test [1], the Ki turned out to be 0.0032 µM and the “selectivity (A1/A2a)” value is recorded as 40.3. This compound came in with an inhibitory constant (Ki) on HA1 adenosine receptor of 0.129 µM.

Consider `CCCCCN(C)C(=O)c1cc(N)n2nc(-c3ccc(Br)o3)nc2c1` [Example 278, 5-Amino-2-(5-bromo-furan-2-yl)-[1,2,4]triazolo[1,5-a]pyridine-7-carboxylic acid methyl-pentyl-amide], for which the inhibitory constant (Ki) in test [1] came out at 0.0056 µM; on HA1 adenosine receptor, 0.0943 µM. Besides, in test [1], the “selectivity (A1/A2a)” value is listed as 16.8.

In the case of `CN(C)CCN(C)C(=O)c1cc(N)n2nc(-c3ccc(Br)o3)nc2c1` [Example 279, 5-Amino-2-(5-bromo-furan-2-yl)-[1,2,4]triazolo[1,5-a]pyridine-7-carboxylic acid (2-dimethylamino-ethyl)-methyl-amide], the inhibitory constant (Ki) came to 0.124 µM in test [1] and 1.06 µM at HA1 adenosine receptor. Also, in test [1], the “selectivity (A1/A2a)” value is recorded as 8.5.

In the case of `Nc1cc(C(=O)N2CC=CC2)cc2nc(-c3nccs3)nn12` [Example 281, (5-Amino-2-thiazol-2-yl-[1,2,4]triazolo[1,5-a]pyridin-7-yl)-(2,5-dihydro-pyrrol-1-yl)-methanone], the figures for the Ki (in test [1]; on HA1 adenosine receptor) were 0.0837 µM and 4.34 µM, respectively. For the same compound, the “selectivity (A1/A2a)” value in test [1] is on record as 51.9.

With `C#CCN(C)C(=O)c1cc(N)n2nc(-c3nccs3)nc2c1` [Example 282, 5-Amino-2-thiazol-2-yl-[1,2,4]triazolo[1,5-a]pyridine-7-carboxylic acid methyl-prop-2-ynyl-amide], the Ki in test [1] was found to be 0.0852 µM; on HA1 adenosine receptor, 4.13 µM. Moreover, in test [1], the “selectivity (A1/A2a)” value is recorded as 48.5.

As for `C=CCN(C)C(=O)c1cc(N)n2nc(-c3nccs3)nc2c1` [Example 283, 5-Amino-2-thiazol-2-yl-[1,2,4]triazolo[1,5-a]pyridine-7-carboxylic acid allyl-methyl-amide], in test [1], the inhibitory constant (Ki) was 0.116 µM and the “selectivity (A1/A2a)” value was 27.0. The compound further returned an inhibitory constant (Ki) on HA1 adenosine receptor of 3.13 µM.

For `CCCN(C)C(=O)c1cc(N)n2nc(-c3nccs3)nc2c1` [Example 284, 5-Amino-2-thiazol-2-yl-[1,2,4]triazolo[1,5-a]pyridine-7-carboxylic acid methyl-propyl-amide], in test [1], the inhibitory constant (Ki) stood at 0.132 µM and the “selectivity (A1/A2a)” value is 29.5. This compound also gave a Ki on HA1 adenosine receptor of 3.89 µM.

For the compound `CC(C)N(C)C(=O)c1cc(N)n2nc(-c3nccs3)nc2c1` [Example 285, 5-Amino-2-thiazol-2-yl-[1,2,4]triazolo[1,5-a]pyridine-7-carboxylic acid isopropyl-methyl-amide], in test [1], the Ki worked out at 0.0835 µM and the “selectivity (A1/A2a)” value was 32.6. At HA1 adenosine receptor, this compound displayed a Ki of 2.72 µM.

`CC1CCCN1C(=O)c1cc(N)n2nc(-c3nccs3)nc2c1` (stereo not drawn) [Example 286, (5-Amino-2-thiazol-2-yl-[1,2,4]triazolo[1,5-a]pyridin-7-yl)-(2-methyl-pyrrolidin-1-yl)-methanone]: in test [1], the Ki amounted to 0.0324 µM and the “selectivity (A1/A2a)” value is reported as 91.8. The compound further gave an inhibition constant Ki at HA1 adenosine receptor of 2.97 µM.

Take `CCCCN(C)C(=O)c1cc(N)n2nc(-c3nccs3)nc2c1` [Example 287, 5-Amino-2-thiazol-2-yl-[1,2,4]triazolo[1,5-a]pyridine-7-carboxylic acid butyl-methyl-amide]: the Ki in test [1] came to 0.142 µM; on HA1 adenosine receptor, 2.19 µM. The “selectivity (A1/A2a)” value in test [1] is 15.4.

As to `CCN(C(=O)c1cc(N)n2nc(-c3nccs3)nc2c1)C(C)C` [Example 288, 5-Amino-2-thiazol-2-yl-[1,2,4]triazolo[1,5-a]pyridine-7-carboxylic acid ethyl-isopropyl-amide], in test [1], the Ki was found to be 0.0666 µM and the “selectivity (A1/A2a)” value is on record as 21.0. Besides, on HA1 adenosine receptor, the inhibition constant (Ki) is 1.4 µM.

Consider `Nc1cc(C(=O)N2CCSC2)cc2nc(-c3nccs3)nn12` [Example 289, (5-Amino-2-thiazol-2-yl-[1,2,4]triazolo[1,5-a]pyridin-7-yl)-thiazolidin-3-yl-methanone], for which, in test [1], the Ki came to 0.0553 µM and the “selectivity (A1/A2a)” value is 42.0. The compound further came in with an inhibition constant (Ki) on HA1 adenosine receptor of 2.32 µM.

The values above are taken from patent publication US6506772B1, “Substituted [1,2,4]triazolo[1,5a]pyridine derivatives with activity as adenosine receptor ligands” (Hoffmann-La Roche Inc., priority 2000, dated 2003).
